In the NIST ThermoML archive (doi:10.1021/acs.jced.7b01125):

Assay: xn = mol fraction of the nth substance listed
Details: Gas, Buoyancy - hydrostatic balance with magnetic suspension - one sinker

[HH] [hydrogen] + C
Details	mass density [kg/m3]
240.07 K, 999 kPa, x2 = 0.9	7.556
240.07 K, 1000 kPa, x2 = 0.4997	4.558
240.07 K, 1999 kPa, x2 = 0.9	15.591
240.07 K, 2000 kPa, x2 = 0.4997	9.174
240.07 K, 3001 kPa, x2 = 0.9	24.162
240.07 K, 3002 kPa, x2 = 0.4997	13.857
240.07 K, 4001 kPa, x2 = 0.9	33.3
240.07 K, 4003 kPa, x2 = 0.4997	18.584
240.07 K, 5000 kPa, x2 = 0.4997	23.326
240.07 K, 5001 kPa, x2 = 0.9	43.067
240.07 K, 6003 kPa, x2 = 0.4997	28.124
240.07 K, 6003 kPa, x2 = 0.9	53.504
240.07 K, 7000 kPa, x2 = 0.4997	32.918
240.07 K, 7005 kPa, x2 = 0.9	64.62
240.07 K, 8003 kPa, x2 = 0.4997	37.747
240.07 K, 9002 kPa, x2 = 0.4997	42.553
240.07 K, 10006 kPa, x2 = 0.4997	47.368
240.07 K, 11006 kPa, x2 = 0.4997	52.137
240.07 K, 11011 kPa, x2 = 0.9499	128.048
240.07 K, 12005 kPa, x2 = 0.4997	56.857
240.07 K, 12014 kPa, x2 = 0.9499	142.433
240.07 K, 13003 kPa, x2 = 0.4997	61.522
240.07 K, 13016 kPa, x2 = 0.9499	155.953
240.07 K, 14011 kPa, x2 = 0.4997	66.173
240.07 K, 14016 kPa, x2 = 0.9499	168.365
240.07 K, 15002 kPa, x2 = 0.4997	70.674
240.07 K, 15021 kPa, x2 = 0.9499	179.661
240.07 K, 16013 kPa, x2 = 0.4997	75.179
240.07 K, 16020 kPa, x2 = 0.9499	189.762
240.07 K, 17008 kPa, x2 = 0.4997	79.535
240.07 K, 17018 kPa, x2 = 0.9	179.188
240.07 K, 17021 kPa, x2 = 0.9499	198.87
240.07 K, 18016 kPa, x2 = 0.4997	83.857
240.07 K, 18016 kPa, x2 = 0.9499	207.026
240.07 K, 18030 kPa, x2 = 0.9	187.542
240.07 K, 19008 kPa, x2 = 0.4997	88.009
240.07 K, 19013 kPa, x2 = 0.9499	214.425
240.07 K, 19032 kPa, x2 = 0.9	195.115
240.07 K, 19589 kPa, x2 = 0.9	199.054
240.07 K, 19703 kPa, x2 = 0.4997	90.858
240.07 K, 19891 kPa, x2 = 0.9499	220.394
240.08 K, 999 kPa, x2 = 0.9499	7.937
240.08 K, 1998 kPa, x2 = 0.9499	16.447
240.08 K, 3000 kPa, x2 = 0.9499	25.62
240.08 K, 3999 kPa, x2 = 0.9499	35.505
240.08 K, 5004 kPa, x2 = 0.9499	46.287
240.08 K, 6000 kPa, x2 = 0.9499	57.87
240.08 K, 7002 kPa, x2 = 0.9499	70.478
240.08 K, 8004 kPa, x2 = 0.9499	84.026
240.08 K, 8008 kPa, x2 = 0.9	76.371
240.08 K, 9003 kPa, x2 = 0.9499	98.317
240.08 K, 9004 kPa, x2 = 0.9	88.565
240.08 K, 10004 kPa, x2 = 0.9	101.131
240.08 K, 10007 kPa, x2 = 0.9499	113.159
240.08 K, 11012 kPa, x2 = 0.9	113.893
240.08 K, 12006 kPa, x2 = 0.9	126.282
240.08 K, 13016 kPa, x2 = 0.9	138.41
240.08 K, 14006 kPa, x2 = 0.9	149.671
240.08 K, 15020 kPa, x2 = 0.9	160.417
240.08 K, 16024 kPa, x2 = 0.9	170.25
250.03 K, 1001 kPa, x2 = 0.4997	4.372
250.03 K, 2000 kPa, x2 = 0.4997	8.784
250.03 K, 2990 kPa, x2 = 0.4997	13.19
250.03 K, 4000 kPa, x2 = 0.4997	17.721
250.03 K, 5000 kPa, x2 = 0.4997	22.235
250.03 K, 7001 kPa, x2 = 0.4997	31.315
250.03 K, 8002 kPa, x2 = 0.4997	35.861
250.04 K, 999 kPa, x2 = 0.9499	7.587
250.04 K, 1999 kPa, x2 = 0.9499	15.652
250.04 K, 3000 kPa, x2 = 0.9	22.884
250.04 K, 3002 kPa, x2 = 0.9499	24.252
250.04 K, 4000 kPa, x2 = 0.9	31.364
250.04 K, 4006 kPa, x2 = 0.9499	33.422
250.04 K, 5002 kPa, x2 = 0.9	40.328
250.04 K, 5005 kPa, x2 = 0.9499	43.167
250.04 K, 5999 kPa, x2 = 0.4997	26.765
250.04 K, 6001 kPa, x2 = 0.9499	53.515
250.04 K, 6004 kPa, x2 = 0.9	49.775
250.04 K, 7002 kPa, x2 = 0.9	59.655
250.04 K, 7002 kPa, x2 = 0.9499	64.575
250.04 K, 8004 kPa, x2 = 0.9	70.009
250.04 K, 9002 kPa, x2 = 0.4997	40.398
250.04 K, 9006 kPa, x2 = 0.9499	88.515
250.04 K, 9011 kPa, x2 = 0.9	80.795
250.04 K, 10001 kPa, x2 = 0.4997	44.91
250.04 K, 10014 kPa, x2 = 0.9	91.789
250.04 K, 11004 kPa, x2 = 0.4997	49.405
250.04 K, 11010 kPa, x2 = 0.9	102.827
250.04 K, 12004 kPa, x2 = 0.4997	53.836
250.04 K, 13005 kPa, x2 = 0.4997	58.27
250.04 K, 14003 kPa, x2 = 0.4997	62.615
250.04 K, 15009 kPa, x2 = 0.4997	66.921
250.04 K, 16007 kPa, x2 = 0.4997	71.14
250.04 K, 17008 kPa, x2 = 0.4997	75.293
250.04 K, 18013 kPa, x2 = 0.4997	79.385
250.04 K, 19258 kPa, x2 = 0.4997	84.34
250.05 K, 1000 kPa, x2 = 0.9	7.23
